The source of these data is patent publication US11220482B2, “Aminopyridinemethanol compounds and their use” (UNIVERSITE AMIENS PICARDIE JULES VERNE, priority 2017, dated 2022).

Structures are written as SMILES. Bounds are passed on as bounds.

Series [1] has as its system P. falciparum 3D7. In words: P. falciparum growth inhibition assay, second round (SYBR Green I, ICEstimator). It is filed as cell-based, Plasmodium falciparum. The conditions noted are these: Plasmodium falciparum, 3D7, 48 h.
For series [2] the following is noted: in vivo, cited from earlier work.
Series [3] has as its system CHO-K1 cells. In words: In vitro micronucleus assay, short-term exposure. The settings on record: short-term, with S9 mix, positive control 5 μg/mL. The method, then:
All the assays were conducted in duplicate. The CHO-K1 cells, suspended in McCoy's 5A medium, were transferred into Labteck wells at a concentration of 100,000 cells/mL, and incubated for 24 hours at 37° C. in CO2 (5%).
When the test was performed without metabolic activation, the test substances were added into cell cultures at concentrations previously defined.
When the assay was performed in the presence of metabolic activation, S9 mix metabolizing mixture was added to cell cultures at a concentration of 10%. Then the test substances were added to the cell cultures at concentrations previously defined.
After 3 hours of incubation at 37° C. in CO2 (5%), the culture medium was removed, the cells were rinsed with phosphate buffered saline (PBS), and then returned to culture in McCoy's 5A medium containing […] of cytochalasin B. After a 21-hour incubation period at 37° C., cells were rinsed with phosphate buffered saline (PBS), fixed with methanol and stained with 10% Giemsa for 20 minutes.
The analysis of results was performed under a microscope at ×1000 magnification. The antiproliferative activity of test substances was estimated by counting the number of binucleated cells relative to the number of mononucleated cells on a total of 500 cells for each dose (250 cells counted per well). The proliferation index (Cytokinesis Blocked Proliferative Index CBPI) was calculated using the following formula:
The cytostasis index (CI %), i.e. the percentage of cell replication inhibition, was calculated using the following formula: CI %−100−{100×(CBPItest material−1)/(CBPIsolvent control−1)}
The rates of micronuclei were evaluated for the presence of independent nuclear core entities in 1000 binucleated cells per well, which corresponds to 2000 cells examined by test substance dose. Micronuclei were identified as small nuclei well differentiated from cell nucleus, stained in the same manner and having a diameter less than one third of that of the cell nucleus.
Micronuclei rates obtained for different doses of test substances were compared to the negative control by a χ2 test. The assay was considered positive if: • A dose-response relationship was obtained between the rate of micronuclei and the doses tested, • At least one of these doses induced a statistically significant increase (P<0.05) in the number of micronucleated cells as compared to the negative control.

For series [4], the system named is Plasmodium falciparum W2. In words: Plasmodium falciparum susceptibility assay, first round (SYBR Green I). The settings on record: W2, first round, 48-h incubation, strain resistant to CQ, sensitive to MQ, read-out: IC50 (nM) Plasmodium falciparum W2 (converted). It is filed as cell-based.
Series [5] relates to Plasmodium falciparum 3D7. The description is as above. The settings on record: 3D7, first round, 48-h incubation, strain susceptible to CQ, decreased susceptibility to MQ, read-out: IC50 (nM) Plasmodium falciparum 3D7 (converted). It is filed as cell-based.

As a reminder, the IC50 is the concentration at which inhibition is half-maximal. `OC(c1cc(-c2ccc(C(F)(F)F)cc2)nc(C(F)(F)F)c1)C1CCCCN1` (racemic) [Enpiroline, reference compound]: in series [1], the IC50 is 21.6 ± 1.43 nM. Further, the mean half-life in series [2] was 140 h.

Turning to `OC(c1cc(C(F)(F)F)nc2c(C(F)(F)F)cccc12)C1CCCCN1` (racemic) [Mefloquine, mefloquine], the “human t1/2” value in series [2] is reported as 2-4 weeks. `C[C@@H]1CC[C@H]2[C@@H](C)C(=O)O[C@@H]3O[C@@]4(C)CC[C@@H]1[C@]32OO4` [Artemisinin]: the “human t1/2” value in series [2] was 1 h. Regarding `c1ccc2c(c1)cc1ccc3cccc4ccc2c1c34` [Benzo-a-pyrene, benzo-a-pyrene, reference compound], in series [3], the “BI (binucleated cells)” value was 475, the “MNC1 (micronucleated cell rate)” value is reported as 28 ‰, the “MNC2 (micronucleated cell rate)” value was 25 ‰ and the “MNC-M (mean of micronucleated cell rates)” value is given as 26.5 ± 2.12 ‰. In addition, in series [3], the “MONO (mononucleated cells)” value was found to be 25. Consider `O[C@@H](CNCCCN1CCN(C(c2ccccc2)c2ccccc2)CC1)c1cc(-c2ccc(C(F)(F)F)cc2)nc(C(F)(F)F)c1` [Compound 1n, (R)-2-((3-(4-benzhydrylpiperazin-1-yl)propyl)amino)-1-(2-(trifluoromethyl)-6-(4-(trifluoromethyl)phenyl)pyridin-4-yl)ethanol], for which the IC50 in series [1] was less than 50 nM; in series [4] it was 86.9 nM. Turning to `O[C@H](CN[C@H](COCC1CC1)Cc1ccccc1)c1ccc(-c2ccc(C(F)(F)F)cc2)nc1C(F)(F)F` [Compound 30u, (S)-2-(((S)-1-(cyclopropylmethoxy)-3-phenylpropan-2-yl)amino)-1-(2-(trifluoromethyl)-6-(4-(trifluoromethyl)phenyl)pyridin-3-yl)ethan-1-ol], the IC50 in series [1] is 165 ± 21.9 nM. Still for that read-out and setting: the result for `O[C@@H](CN[C@H](COCC1CC1)Cc1ccccc1)c1ccc(-c2ccc(C(F)(F)F)cc2)nc1C(F)(F)F` [Compound 30v, (R)-2-(((S)-1-(cyclopropylmethoxy)-3-phenylpropan-2-yl)amino)-1-(2-(trifluoromethyl)-6-(4-(trifluoromethyl)phenyl)pyridin-3-yl)ethan-1-ol] reads 896 nM. As to `OC(c1cc(C(F)(F)F)nc2c(C(F)(F)F)cccc12)C1CCCCN1` (centres unmarked) [MQ, Mefloquine, reference compound], the figures for the 50% inhibitory concentration (IC50) in series [1], in series [4] and in series [5] were 32.3 ± 3.2 nM, 31.8 ± 1 nM and 79.7 ± 8.5 nM, respectively. Turning to `CCCCN(CCCC)CC(O)c1cc(Cl)cc2c1-c1ccc(Cl)cc1/C2=C/c1ccc(Cl)cc1` (centres unmarked) [lumefantrine], in series [2], the “human t1/2” value is 72 to 96 h.
